Measured values taken from patent publication US8008325B2, “Plasma carboxypeptidase B inhibitors” (Bayer Schering Pharma AG, priority 2002, dated 2011).
pIC50: −log10 of the molar value.

How the values were obtained:
[1] = molecular target: T1, activated plasma carboxypeptidase B (Homo sapiens, UniProt Q96IY4); experiment: Assay for activated plasma carboxypeptidase B activity (hippuryl-Arg hydrolysis, colorimetric); assay type: biochemical; conditions: used as positive standard; hippuryl-Arg final 1 mM
T1 sequence (Q96IY4 115-423): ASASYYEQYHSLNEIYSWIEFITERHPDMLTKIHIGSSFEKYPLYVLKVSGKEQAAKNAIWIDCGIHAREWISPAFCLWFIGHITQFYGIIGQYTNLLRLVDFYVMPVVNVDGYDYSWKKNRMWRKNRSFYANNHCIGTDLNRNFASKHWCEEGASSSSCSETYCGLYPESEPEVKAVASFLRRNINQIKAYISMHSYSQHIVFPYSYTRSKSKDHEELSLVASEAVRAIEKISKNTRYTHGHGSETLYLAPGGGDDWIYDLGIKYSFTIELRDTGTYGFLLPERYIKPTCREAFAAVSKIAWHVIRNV
Protocol: The compounds of the invention were tested in an in vitro assay according to the method described in Hendriks et al., “Colorimetric assay for carboxypeptidase N in serum”, Clinica Chimica Acta (1986), Vol. 157, pp. 103-108 and Zhao et al., “Identification and characterization of two thrombin-activatable fibrinolysis inhibitor isoforms”, Thromb. Haemost. (1998), Vol. 80, pp. 949-955.
Activation of Plasma Carboxypeptidase B:
The following reagents were mixed together at a total volume of 200 μL:
The above mixture was incubated for 15 minutes at ambient temperature. The activation process was stopped by the addition of 2 μl of PPACK, D-Phe-Pro-Arg chloromethylketone (100 μM, final 1.0 μM). The mixture was then diluted 1:36 with the activation buffer containing 0.1% BSA. The resulting diluted mixture was kept on ice. […] The resulting sample mixture was incubated for 2 minutes at ambient temperature. To the sample mixture was added 12 μL of 5 mM hippuryl-Arg (final 1 mM (=Km)). The resulting sample mixture was incubated at ambient temperature for 30 minutes. At the end of the reaction, the product, hippuric acid, in the sample mixture was converted to a chromogen by adding the following to the mixture: • 80 μL of 0.2 M sodium phosphate buffer, pH 8.3 • 60 μL of 3% cyanuric chloride in dioxane (w/v). […] Optical density of the samples was measured at 382 nm.

[2] = molecular target: T2, plasma carboxypeptidase B (Homo sapiens, UniProt Q96IY4); conditions: t-PA-induced lysis; cited from earlier work
T2 sequence (Q96IY4 115-423): T1 sequence (Q96IY4 115-423)

pIC50 [1]: 4.46
Structure (SMILES): NC(N)=NCCSC(CC(=O)O)C(=O)O (centres unmarked) [GEMSA, guanidinoethyl-mercaptosuccinic acid]
effect on the inhibitory effect of plasma carboxypeptidase B on clot lysis [2]: blocked the inhibitory effect of plasma carboxypeptidase B on clot lysis
